# Results published in patent publication US11351185B2, “Use of isovalerylspiramycins as anti-cancer agents to inhibit metastasis” (priority 2020, dated 2022).
# Entries after “also recorded” stand apart in the source; their conditions may differ.
# Legend:
# [1] = system: meningioma cell lines IOMM, JEN, CH-157; test: CCK8 cell viability assay, meningioma cell lines; assay type: cell-based; details: 48 hours
# Experimental: Cell viability was measured by Cell Counting Kit-8 (CCK-8, Dojindo Molecular Technologies, Tokyo, Japan). Cells were seeded in 96-well plates at a density of 3×10^3 cells/well and cultured for 24 hours before treatment with ISP I at different concentration. After treatment for a gradient ISP I concentration from 0 to 20 μg/ml for 48 hours, while control groups were only treated in PBS solution, 10 μl of CCK-8 solution were added to each well and cells were incubated for an additional 2 hours. The absorbance in each well at a wavelength of OD450 was detected by the Synergy H1 microplate reader, a product of BioTek (Winooski, Vt. USA).
# [2] = system: SELH-deficient LN229 cells; test: CCK8 assay in SELH-deficient (CRISPR/CAS9) LN229 cells; assay type: cell-based; details: LN229 SELH knock out
# Source text: SELH knockout LN229 cell lines and B16 were generated using the CRISPR/Cas9 technique described by Shalem et al., Science 343: 84 (2014). The gDNA for targeting SELH was designed as follows: Oligo 1, 5′-[…]-3′; Oligo 2, 5′-[…]-3′; the gDNA for targeting mouse SELH was designed as follows: Oligo 1, 5′-[…]-3′; Oligo 2, 5′-[…]-3′, and subcloned into Cas9 carrying vector (pX330). The two resultant plasmids and puromycin-expressing vector (pPGK-puro) were co-transfected at a ratio of 1:1:1 into LN229 or B16 cells using Lipofectamine 2000 (Invitrogen). Twenty-four hours later, the transfected cells were subjected to puromycin (Sigma) at 1 μg/mL for 7 days. One week after selection, the surviving clones were expanded, followed by extraction of total protein for standard western blotting analysis.
# Cell viability was measured by Cell Counting Kit-8 (CCK-8, Dojindo Molecular Technologies, Tokyo, Japan). Cells were seeded in 96-well plates at a density of 3×10^3 cells/well and cultured for 24 hours before treatment with ISP I at different concentration. […] The absorbance in each well at a wavelength of OD450 was detected by the Synergy H1 microplate reader, a product of BioTek (Winooski, Vt. USA).
# [3] = system: U2OS cell line; test: R-loop and EdU staining in U2OS cells; assay type: cell-based, Human; details: 6 hours
# Source text: In order to assess ISP I's effect within the nuclear compartment, the inventors evaluated DNA-RNA R-loop formation within ISP I-treated Human Bone Osteosarcoma Epithelial Cells (U2OS cell line). R-loops are DNA-RNA hybrid structures composed of a displaced single-stranded DNA hybridized with the nascent RNA transcript. Santo-Pereira et al., Nat. Rev. Genet. 16: 583 (2015). […] Teng et al., Nature communications 9: 4115 (2018).
# U2OS cells obtained from ATCC were transfected with plasmid containing RNaseH1 construct mutated at D210N (Addgene #111904) and WKKD (Addgene #111905). Stable monoclonal cells were selected with hygromycin.
# EdU and R-loop staining for U2OS cells was conducted as follows: U2OS cells were incubated with EdU for 20 min and washed with a brief PBS wash. These cells were then pre-extracted in PBS-T buffer (0.2% Triton X-100 in 1×PBS, phenylmethylsulphonylfluoride [PMSF], protease inhibitor cocktail (Sigma, P8340) and phosphatase inhibitor cocktail (Roche, P4906845001)) for 3 min on ice and washed with a brief PBS wash. Pre-extracted cells were fixed using 2.0% paraformaldehyde (PFA) solution in PBS. EdU staining was performed according to the manufacturer's instructions. Primary antibody staining was performed as follows: anti-V5-tag (Santacruz, sc-271926, 1:250 dilution). Secondary antibody staining was performed as follows: Alexa 568 conjugated anti-mouse IgG (1:500, ThermoFisher Scientific). A Zeiss LSM710 confocal microscopy was used for imaging. Images where scored in ZenBlue software by counting non-nucleolar R-loops foci, where nucleoli were masked based on intensity and size of R-loop staining and number of foci counted in the rest of the nucleus.
# [4] = system: SELH, Nucleolin, Fibrillarin, POL1, NPM, p53; test: Nucleolar stress response, immunofluorescence and western blot; assay type: cell-based; details: LN229
# Experimental: (§1) SELH is localized in the nucleolus, which is a sensor of oxidative stress. Yang et al., Nature communications 7: 13599 (2016); Novoselov et al., J. Biol. Chem. 282: 11960 (2007). […] JNK2 activation by oxidative stress inactivated RNA polymerase I (POL1) transcription factor TIF1A in the nucleoli to down-regulate rRNA synthesis. Mayer et al., Genes Dev. 19: 933 (2005). To investigate whether the ribosomal biogenesis was disrupted by ISP I, pre-rRNA transcription was evaluated using real-time RT-PCR analysis in LN229 cells. […] To examine the mechanisms by which ISP I disrupts POL1 transcription, the inventors initially evaluated JNK2 activity and the overall state of the transcription machinery in ISP I-treated LN229 cells.
# (§2) Western blotting was performed to detect the protein expression level of SELH, NRF2 and γH2AX regulated by ISP I. The cells were lysed by RIPA buffer from ThermoFisher Scientific, and the concentration was measured using DC Protein Assay, a Bio-Rad product. Equal amounts of protein of each sample were loaded for gel electrophoresis and were transferred to nitrocellulose membrane, blocked and incubated overnight at 4° C. with primary antibodies. Then the membranes were washed with TBST (3 times, 10 min each). Exposure, imaging, and data analysis were done using a KwikQuant Imager system, a product of Kindle Biosciences (Greenwich, Conn. USA). The following antibodies were used: anti-phospho-histone H2A.X (Ser139), anti-NRF2 (Cell Signaling, Danvers, Mass. USA), anti-SELH (Abcam, Cambridge, Mass. USA), anti-GAPDH (Millipore, Temecula, Calif. USA).
# For immunofluorescence assay, cells were seeded on a 35-mm confocal dish with glass bottom and were treated with ISP I. After 24 hours, cells were fixed with 4% paraformaldehyde and were labeled with primary antibodies against γH2AX overnight at 4° C. Then the cells were incubated with secondary antibody conjugated with Alexa Fluor-594 (Invitrogen), followed by staining with DAPI for nuclei. Images were obtained using Zeiss LSM 780 microscopy (Carl Zeiss, Oberkochen Germany).
# [5] = system: JNK2, POL1, TIF1A; test: Western blot of JNK2 phosphorylation, POL1 and TIF1A; assay type: cell-based; details: LN229 cells
# Experimental: as §1
# as §2, with “The following antibodies were used: anti-phospho-histone H2A.X (Ser139), anti-NRF2 (Cell Signaling, Danvers, Mass. USA), anti-SELH (Abcam, Cambridge, Mass. USA), anti-GAPDH (Millipore, Temecula, Calif. USA).” left out
# [6] = system: POL1 occupancy on rDNA; test: Chromatin immunoprecipitation (CHIP) assay; assay type: cell-based; details: LN229 cells
# Experimental: as §1
# ChIP assays were performed using a SimpleCHIP Enzymatic Chromatin IP Kit (Magnetic beads) following the manufacturer's instructions (Cell Signaling Technology; catalog 9003). Cross-linked protein-DNA complexes were precipitated by incubating with rabbit anti-POL1A (CST; 24799s) or rabbit IgG (negative control) overnight and then with magnetic beads for 2 hours. Purified DNA fragments, […], were analyzed quantitatively by real-time PCR with primers against the rDNA promoter and gene body, following the standard-curve method. The standard curves were created by serial dilution of 2% input chromatin DNA. […]
smiles,measurement,setting,value
"COC1C(O)CC(=O)OC(C)CC=CC=CC(OC2CCC(N(C)C)C(C)O2)C(C)CC(CC=O)C1OC1OC(C)C(OC2CC(C)(O)C(OC(=O)CC(C)C)C(C)O2)C(N(C)C)C1O (stereo not drawn) [ISP I, 4″-isolvalerylspiramycin I]",cytotoxic effect on meningioma cell lines,[1],demonstrated a cytotoxic effect
same,sensitivity of SELH-deficient cells vs wild type (CCK8),[2],resistance to ISP I; also recorded: SELH-deficient cells were resistant to ISP I treatment
same,EdU incorporation (DNA replication),[3],reduced EdU (DNA replication marker) incorporation into DNA in a dose-dependent manner
same,R-loop formation,[3],increased R-loop accumulation
same,EdU incorporation (DNA replication),[3]; listed as ISP 1,reduction in EdU incorporation
same,R-loop formation,[3]; listed as ISP 1,increase of R-Loops formation
same,NPM expression (western blot),[4],"decreased nucleolar protein, NPM and P53 expression in a dose dependent manner; also recorded: reduced NMP expression"
same,SELH expression in the nucleolus (immunofluorescence),"[4]; 8 h, 10 μg/mL",loss and reduction of SELH expression in the nucleolus
same,"nucleolar labeling of Nucleolin, Fibrillarin, POL1, NPM (immunofluorescence)","[4]; 8 h, 10 μg/mL","loss and dispersion of nucleolar proteins (Neucleolin, Fibrillarin, POL1, NPM)"
same,JNK phosphorylation (western blot),[5],increased JNK2 phosphorylation; also recorded: JNK1 phosphorylation increased
same,POL1 and TIF1A expression (western blot),[5],slightly reducing POL1 and TIF1A expression in a dose-dependent manner; also recorded: expression of POL1 and TIF1A slightly decreased
same,POL1 recruitment / occupancy on rDNA (CHIP),[6],reduces the occupancy of POL1 on rNDA; also recorded: significantly reduced POL1 recruitment to the promoter coding regions of rDNA
